From patent publication US8637665B2, “Pyrrolo[2,L-C][L,4]benzodiazepine-benzothiazole or benzoxazole conjugates linked through piperazine moiety and process for the preparation thereof” (priority 2010, dated 2014)
Where two headings read alike, the source gives them in different places.

Assays:
[1] = system: A 549 (lung cancer) cell line; details: comparative data, hybrids without piperazine; read-out: GI50 A 549 (hybrides with out piperazine); cited from earlier work
[2] = system: A498 cell line; details: comparative data, hybrids without piperazine; read-out: GI50 A498 (hybrides with out piperazine); cited from earlier work
[3] = system: MCF 7 (breast cancer) cell line; details: comparative data, hybrids without piperazine; read-out: GI50 MCF 7 (hybrides with out piperazine); cited from earlier work
[4] = system: PC 3 (prostate cancer) cell line; details: comparative data, hybrids without piperazine; read-out: GI50 PC 3 (hybrides with out piperazine); cited from earlier work
[5] = system: HOP 62 (lung cancer) cell line; details: comparative data, hybrids without piperazine; read-out: GI50 HOP 62 (hybrides with out piperazine); cited from earlier work
[6] = system: SNB-19 cell line; details: comparative data, hybrids without piperazine; read-out: GI50 SNB-19 (hybrides with out piperazine); cited from earlier work
[7] = system: duplex-form calf thymus DNA (CT-DNA); details: comparative data, hybrids without piperazine, cited from earlier work
[8] = system: Colo 205 (colon cancer) cell line; details: comparative data, hybrids without piperazine; read-out: GI50 Colo 205 (hybrides with out piperazine); cited from earlier work
[9] = system: IGROV1 (ovary cancer) cell line; details: comparative data, hybrids without piperazine; read-out: GI50 IGROV1 (hybrides with out piperazine); cited from earlier work
[10] = system: MCF 7 (breast cancer) cell line; experiment: cells; assay type: cell-based; details: Homo sapiens, MCF7, 48 h; for GI50: read-out: GI50 MCF 7; for LC50 (concentration causing 50% cell death): read-out: LC50 MCF 7, 50% cell death, 48 h drug exposure, SRB
Description: (§1) Anticancer activity: In vitro biological activity studies were carried out at the Advance Center for Treatment Research & Education in Cancer (ACTREC), Navi Mumbai.
(§2) The compounds were evaluated for in vitro anticancer activity against eight tumour cells lines derived from seven cancer types (non-small-cell lung, colon, oral, cervix, ovarian, prostate, and breast cancer) as shown in Table 2. For each compound, dose response curves for each cell line were measured at a minimum of five concentrations at 10 fold dilutions. A protocol of 48 h continuous drug exposure was used and a sulforhodamine B (SRB) protein assay was used to estimate cell viability or growth. The concentration causing 50% cell growth inhibition (GI50) and 50% cell death (LC50, −50% growth) compared with the control was calculated. Compounds 9a-9l have been evaluated for their in vitro cytotoxicity in eight cell lines from seven human cancer types of lung (Hop-62, A-549) colon (COLO-205) cervix (Si—Ha), ovary (A-2780), prostate (PC3) breast (MCF7), oral (KB). The results are expressed as percent of cell growth determined relative to that of untreated control cells (Table-8 and table-9).

[11] = system: PC 3 (prostate cancer) cell line; experiment: cells; assay type: cell-based; details: Homo sapiens, 48 h; for GI50: read-out: GI50 PC 3; for CC50: read-out: LC50 Pc 3, 50% cell death, 48 h drug exposure, SRB
Description: as §1, §2

[12] = system: A 549 (lung cancer) cell line; experiment: cells; assay type: cell-based; details: Homo sapiens, A549, 48 h; for GI50: read-out: GI50 A 549, 48 h drug exposure, SRB, mean of three determinations; for CC50: read-out: LC50 A 549, 50% cell death, 48 h drug exposure, SRB
Description: as §1, §2

[13] = system: SiHa (cervix cancer) cell line; experiment: cells; assay type: cell-based; details: Homo sapiens, SiHa, 48 h; for GI50: read-out: GI50 SiHa, 48 h drug exposure, SRB, mean of three determinations; for LC50 (concentration causing 50% cell death): read-out: LC50 SiHa, 50% cell death, 48 h drug exposure, SRB
Description: as §1, §2

[14] = system: A 2780 (ovary cancer) cell line; experiment: cells; assay type: cell-based; details: Homo sapiens, A2780, 48 h; for GI50: read-out: GI50 A 2780, 48 h drug exposure, SRB, mean of three determinations; for CC50: read-out: LC50 A 2780, 50% cell death, 48 h drug exposure, SRB
Description: as §1, §2

[15] = system: Colo 205 (colon cancer) cell line; experiment: cells; assay type: cell-based; details: Homo sapiens, COLO 205, 48 h; for GI50: read-out: GI50 Colo 205, 48 h drug exposure, SRB, mean of three determinations; for CC50: read-out: LC50 Colo 205
Description: as §1, §2

[16] = system: HOP 62 (lung cancer) cell line; experiment: cells; assay type: cell-based; details: Homo sapiens, HOP-62, 48 h; for GI50: read-out: GI50 HOP 62, 48 h drug exposure, SRB, mean of three determinations; for LC50: read-out: LC50 HOP 62, 50% cell death, 48 h drug exposure, SRB
Description: as §1, §2

[17] = system: eight tumour cells lines derived from seven cancer types; experiment: In vitro anticancer activity, SRB assay, panel of eight cell lines; assay type: cell-based; details: Homo sapiens, range over the eight cell lines per compound; read-out: GI50 range against cancer cell lines
Description: as §1, §2

[18] = system: duplex-form calf thymus DNA (CT-DNA); experiment: Thermal denaturation studies with calf thymus DNA (DNA binding affinity); details: [PBD]:[DNA] 1:5, CT-DNA 100 μM, ligand 20 μM, pH 7.00
Description: Compounds have been subjected to thermal denaturation studies with duplex-form calf thymus DNA (CT-DNA) using an modification of a reported procedure (Newman, M. S. Carcinog-compr. Surv. 1976,1, 203; (b) Hecht, S. S.; Loy, M.; Hoffman, Carcinog-compr. Surv. 1976, 1, 325). Working solutions in aqueous buffer (10 mM NaH2PO4/Na2HPO4, 1 mM Na2EDTA, pH 7.00+0.01) containing CT-DNA (100 μm in phosphate) and the PBD (20 μm) have been prepared by addition of concentrated PBD solutions in DMSO to obtain a fixed [PBD]/[DNA] molar ratio of 1:5. The DNA-PBD solutions have been incubated at 37° C. for 0 and 18 h prior to analysis. Samples have been monitored at 260 using a Beckman DU-800 spectrophotometer fitted with high performance temperature controller, and heated at 1° C. min^−1 in the 40-110° C. range. DNA helix→coil transition temperatures (Tm) have been obtained from the maxima in the d(A260)/dT derivative plots. Drug-induced alterations in DNA melting behavior are given by: ΔTm=Tm(DNA+PBD)−Tm(DNA alone), where the Tm value for the PBD-free CT-DNA is 69.1±0.01.
The DNA binding activity for these novel C8-linked benzothiazole, benzoxazole-PBD hybrids has been examined by thermal denaturation studies using calf thymus (CT) DNA. […] The data for the compounds 9a-n is included in Table 7 for comparison.

[19] = system: KB (oral cancer) cell line; experiment: In vitro anticancer activity, SRB assay, KB; assay type: cell-based, human; details: Homo sapiens, 48 h; for GI50: read-out: GI50 KB, 48 h drug exposure, SRB, mean of three determinations; for CC50: read-out: LC50 KB, 50% cell death, 48 h drug exposure, SRB
Description: as §1, §2

[20] = system: MCF-7 (breast cancer) xenografts; experiment: In vivo efficacy study on xenograft MCF-7; details: MCF-7 xenograft, scid male mice; compared with positive control adriamycin
Excerpt: (§3) References may be made to patent “WO/2008/099416” wherein Benzothiazole or benzoxazole linked Pyrrolo[2,1-c][1,4] benzodiazepine hybrid as anticancer agent has been reported. References may be made to patent “U.S. Pat. No. 6,979,684” wherein Pyrrolo[2,1-c][1,4] benzodiazepine and naphthalimide are linked through piperazine moiety. The linking of pharmacophore like napthalimide and piperazine to pyrroloberizodiazepine can not be considered similar to a pharmacophore like benzothiazole as each pharmacophore is known for certain biological property. In the present investigation the benzothiaole and piperazine subunits are considered to be a different heterocyclic moieties compared to the earlier reported pharmacophores like napthalimide. Therefore, this structural variation of benzothiazole with piperazine moiety has been utilized for DNA binding aspect. Keeping this in mind, these new conjugates have been designed and synthesized to further improve the anticancer activity including the DNA binding affinity. The anticancer activity may not depend on the DNA binding activity. […] Moreover, one of the potent conjugate 9f (IICT-302) of this series has been evaluated for its in vivo efficacy studies (in scid male mice) against MCF-7 (breast cancer) and PC-3 (prostate cancer) xenografts by using adriamycin as a positive control.
FIG. 2 represents in vivo efficacy study of compound 9f on xenograft MCF-7.
(§4) The structural variation of benzothiazole/benzoxazole with piperazine moiety has been utilized for DNA binding aspect. Moreover, one of the potent conjugate 9f (IICT-302) of this series has been evaluate for its in vivo efficacy studies against MCF-7 (breast cancer) and PC-3 (prostate cancer) by using Adriamycin as positive control.

[21] = system: PC-3 (prostate cancer) xenografts; experiment: In vivo efficacy study on xenograft PC3; details: PC-3 xenograft, scid male mice; compared with positive control adriamycin
Excerpt: as §3
FIG. 3 represents in vivo efficacy study of compound 9f on xenograft PC3.
as §4

Compound | GI50 [1] | GI50 [2] | GI50 [3] | GI50 [4] | GI50 [5] | GI50 [6] | ΔTm after incubation at 37° C. for 0 h (PBD hybrids with out piperizine) [7] | ΔTm after incubation at 37° C. for 18 h (PBD hybrids with out piperizine) [7] | GI50 [8] | GI50 [9] | GI50 [10] | LC50 (concentration causing 50% cell death) [10] | GI50 [11] | CC50 [11] | GI50 [12] | CC50 [12] | GI50 [13] | LC50 (concentration causing 50% cell death) [13] | GI50 [14] | CC50 [14] | other results
COc1cc2c(cc1OCCCCOc1ccc(-c3nc4ccccc4s3)cc1)N=C[C@@H]1CCCN1C2=O [Compound 20a] | 2630 nM | 2020 nM | 320 nM | 290 nM | 406 nM | 1520 nM | 0.5 °C | 0.5 °C | 340 nM | 2420 nM | – | – | – | – | – | – | – | – | – | – | –
COc1cc(-c2nc3ccccc3s2)ccc1OCCCCCOc1cc2c(cc1OC)C(=O)N1CCC[C@H]1C=N2 [Compound 20d] | 240 nM | 170 nM | 10 nM | 40 nM | 40 nM | 210 nM | 6.2 °C | 6.3 °C | 60 nM | 344 nM | – | – | – | – | – | – | – | – | – | – | –
COc1cc2c(cc1OCCCN1CCN(CCCOc3ccc(-c4nc5ccccc5o4)cc3)CC1)N=C[C@@H]1CCCN1C2=O [Compound 9i] | – | – | – | – | – | – | – | – | – | – | < 10 nM | 150 nM | < 10 nM | 230 nM | < 10 nM | > 100000 nM | 117 nM | 28500 nM | 80 nM | 2250 nM | GI50 [15]: < 10 nM; CC50 [15]: > 100000 nM; GI50 [16]: 110 nM; LC50 [16]: 27000 nM; GI50 [17]: ≤ 117 nM; ΔTm after incubation at 37° C. for 0 h [18]: 9.5 °C; ΔTm after incubation at 37° C. for 18 h [18]: 9.7 °C; GI50 [19]: < 10 nM; CC50 [19]: 28000 nM
COc1cc(-c2nc3ccccc3s2)ccc1OCCCCOc1cc2c(cc1OC)C(=O)N1CCC[C@H]1C=N2 [Compound 20b] | 2660 nM | 1600 nM | 400 nM | 410 nM | 1410 nM | 1610 nM | 0.5 °C | 0.5 °C | 690 nM | 3060 nM | – | – | – | – | – | – | – | – | – | – | –
COc1cc(-c2nc3ccccc3s2)ccc1OCCCCN1CCN(CCCCOc2cc3c(cc2OC)C(=O)N2CCC[C@H]2C=N3)CC1 [Compound 9f, 7-Methoxy-8-[4-(4-{4-[4(1,3-benzothiazol-2-yl)-2-methoxyphenoxy]butyl}piperazin-1-yl)butyl]oxy-(11aS)-1,2,3,11a-tetrahydro-5H-pyrrolo[2,1-c][1,4]benzodiazepin-5-one] | – | – | – | – | – | – | – | – | – | – | < 10 nM | < 10 nM | < 10 nM | 2400 nM | < 10 nM | > 100000 nM | < 10 nM | 2500 nM | < 10 nM | 89 nM | GI50 [15]: < 10 nM; CC50 [15]: > 100000 nM; GI50 [16]: < 10 nM; LC50 [16]: 2400 nM; GI50 [17]: < 10 nM; RTV in in vivo efficacy study [20]: good RTV; survival data in in vivo efficacy study [20]: good survival data; toxicity in in vivo efficacy study [20]: less toxicity; ΔTm after incubation at 37° C. for 0 h [18]: 15.5 °C; ΔTm after incubation at 37° C. for 18 h [18]: 15.9 °C; RTV in in vivo efficacy study [21]: good RTV; survival data in in vivo efficacy study [21]: good survival data; toxicity in in vivo efficacy study [21]: less toxicity; GI50 [19]: < 10 nM; CC50 [19]: 180 nM
COc1cc2c(cc1OCCCCCOc1ccc(-c3nc4ccccc4s3)cc1)N=C[C@@H]1CCCN1C2=O [Compound 20c] | 2590 nM | 2260 nM | 330 nM | 230 nM | 412 nM | 2940 nM | 4.1 °C | 4.3 °C | 380 nM | 2690 nM | – | – | – | – | – | – | – | – | – | – | –
